Test results from US20250041313A1, “COMBINATION THERAPY FOR TREATMENT OF CANCER” (CITY OF HOPE, priority 2023, published 2025).

Columns and labels:
SBC3 xenograft = assay: SBC3 mouse xenograft, Carbo/Leflu study; assay type: in vivo
Protocol: (§1) Athymic nude nu/nu mice were obtained from Charles River, Wilmington, MA, and were acclimated for a week before beginning the experiment. All animal experiments were carried out in accordance with a protocol approved by the Institutional Animal Care and Use Committee COH (IACUC #16004). For treatments, mice were divided into 4 groups with five mice per group and subcutaneously injected into one flank with 2×10^6 SBC3 or SBC5 cells suspensions in 100 μl of PBS. Treatment started on the 14th day when tumors became palpable. Two in vivo studies were done in this project. SBC3 and SBC 5 xenograft with i) vehicle control, ii) […] 50 mg/kg, iii) Leflu 7.5 mg/kg, and iv) […]/Leflu. SBC3 with i) vehicle control, ii) Lur 0.5 mg/kg, iii) Leflu 3.8 mg/kg, and iv) Lur/Leflu. Treatments were given to mice via i.p. twice a week for 6 weeks. Animals were examined daily for signs of tumor growth. Tumors were measured in two dimensions using calipers and body weights were recorded. Animals were photographed on days 1, 5, 10, 15, 20, 25, 30, 35, and 40 after treatment. Tumors were removed on day 40 and photographed. At the end of the study, the mice were euthanized by CO2 asphyxiation followed by cervical dislocation. The tumor weights were compared between groups using an unpaired Student's t-test. A portion of the tumor was fixed in 10% buffered formaldehyde solution and paraffin-embedded for immuno-staining. FFPE tumor sections were stained with pDRP Ser^616 antibody. Tumor sections were deparaffinized and rehydrated, followed by heat-mediated antigen retrieval (pH 6, Dako). After permeabilization and blocking, tumor sections were stained with pDRP1 Ser^616 antibody overnight, washed and incubated with Alexa 488 secondary antibody for one hour, mounted and observed on an LSM 880 with a 10×/0.45 NA objective (Carl Zeiss). Immunofluorescent confocal images were acquired for each treatment (magnification:100×). Mean immunofluorescence intensities were calculated with ZEN 2.3 Lite software.

SBC5 xenograft = assay: SBC5 mouse xenograft, Carbo/Leflu study; assay type: in vivo; conditions: Carbo 50 mg/kg, Leflu 7.5 mg/kg, i.p. twice a week
Protocol: as §1, with “A portion of the tumor was fixed in 10% buffered formaldehyde solution and paraffin-embedded for immuno-staining. FFPE tumor sections were stained with pDRP Ser^616 antibody. Tumor sections were deparaffinized and rehydrated, followed by heat-mediated antigen retrieval (pH 6, Dako). After permeabilization and blocking, tumor sections were stained with pDRP1 Ser^616 antibody overnight, washed and incubated with Alexa 488 secondary antibody for one hour, mounted and observed on an LSM 880 with a 10×/0.45 NA objective (Carl Zeiss). Immunofluorescent confocal images were acquired for each treatment (magnification:100×).” left out

[1] = cited from earlier work
SBC3 cells = assay: Immunoblotting of cell lysates (pDRP1, p53, DNA damage markers); assay type: cell-based, human
Protocol: SCLC total cell lysates were prepared using RIPA (radioimmunoprecipitation assay lysis buffer) lysis buffer. Protein concentration was determined using DC Protein Assay Kit Bio-Rad (Hercules, CA). Samples were then run on SDS-PAGE in 4-15% polyacrylamide gels and transferred onto Immobilon membranes (Millipore, MO), blocked, incubated with specific primary antibodies at 4° C. overnight, and subsequently developed with secondary antibodies. The following primary antibody were used: pan-Actin, Phospho-DRP1 (Ser^616), Phospho-DRP1 (Ser^637), Histone H2B (V^119), Phospho-Histone H2A.X (Ser^139), Phospho-P53 (Ser^15), P-53, Cleaved PARP (Asp^214) (D64E10), Phospho-Chk1 (Ser^345) (133D3) and p21 were from Cell Signaling Technology (City of Industry, CA), β-Actin (Sigma-Aldrich, St. Luis, MO), Phospho RNA Polymerase II (S2) antibody (Bethyl Lab, Montgomery, TX), RNA Polymerase II CTD4H8 (BioLegend, San Diego, CA), DHODH (E-8), DRP1 (C-5), GAPDH (0411), c-Myc (9E10), Tom20 (F-10), FisI (B-5), OPA1 (D-9), antibodies from Santa Cruz Biotechnology (Dallas, TX) and MFN2 (Abcam, Boston, MA) and Chk1, MDM2, Cyclin CDK4 and D1, and E2F1 (Proteintech, Rosemont, IL).

[2] = system: pDRP1 (Ser616) in SBC3 cells; assay: pDRP1 Ser616 immunofluorescence staining, QuPath; assay type: cell-based, human; conditions: SBC3, Teri overnight
Protocol: (§2) SBC3 and SBC5 cells were grown on glass coverslips and treated with Teri overnight. Next, cells were fixed in 4% paraformaldehyde, permeabilized, and blocked before incubating with pDRP1 (Ser^616) antibody followed by Alexa 488 secondary antibody. This was followed by staining with Tom20 (F-10) antibody. A far-red dye was used for cytoplasmic staining. Fluorescent images were acquired on an Axio Observer 7 inverted microscope (Carl Zeiss, Jena, Germany). Nuclei and DRP1 were stained with DAPI and Alexa 488 secondary antibody. All imaging was performed using a 40×/0.95 NA Plan-Apochromat objective with a final per pixel scaling of 0.147 by 0.147 microns. Within each 3×3 field of image view (>200 cells per image), QuPath 0.2.0M9 was used to detect cell nuclei, a cytoplasmic area around the nucleus was expanded for analysis, followed by limiting the area of that blind expansion based on the presence of the cytoplasmic dye. […] The mean pDRP1 signal intensity was then measured within that area. The green intensity sum of these areas was calculated per cell and then averaged for each sample image.
(§3) Additionally, SBC3 and SBC5 cells were stained with pDRP1 Ser^616 antibody (2° ab Alexa488), and the phosphorylation level was analyzed with QuPath 0.2.0M9 software.

[3] = system: pDRP1 (Ser616) in SBC5 cells; assay: pDRP1 Ser616 immunofluorescence staining, QuPath; assay type: cell-based, human; conditions: SBC5, Teri overnight
Protocol: as §2, §3

| SMILES | pDRP1 Ser616 immunofluorescence in tumor sections (SBC3 xenograft; SBC3 xenograft FFPE tumors) | reduction in tumor size/weight (SBC3 xenograft; SBC3 xenograft, day 40, vs control) [%] | average final tumor weight at end of study (day 40) (SBC3 xenograft; SBC3 xenograft, Carbo 50 mg/kg, Leflu 7.5 mg/kg, i.p. twice a week) [g] | final tumor weight (day 40) (SBC5 xenograft) [g] | safety profile ([1]; up to 40 mg/day, patients with Wegner's granulomatosis) | time to attain steady state concentrations ([1]; without a loading dose, estimated, FDA label) | ratio of pDRP1 (Ser616) to pDRP1 (Ser637) (SBC3 cells; SBC3, densitometry) | DRP1 expression level (SBC3 cells; SBC3, immunoblot) | DRP1 phosphorylation at Ser616, and Ser637 (SBC3 cells; SBC3, immunoblot) | pDRP1 Ser616 green IF signal intensity [2] | pDRP1 Ser616 green IF signal intensity [3] |
| --- | --- | --- | --- | --- | --- | --- | --- | --- | --- | --- | --- |
| Cc1oncc1C(=O)Nc1ccc(C(F)(F)F)cc1 [Leflunomide, leflunomide] | significant decrease | ~36 | 1.01 ± 0.14 | 1.49 ± 0.20 | safety profile like the 20 mg/day dose | two |  |  |  |  |  |
| C/C(O)=C(\C#N)C(=O)Nc1ccc(C(F)(F)F)cc1 [Teriflunomide, teriflunomide] |  |  |  |  |  |  | significantly decreased in a dose-dependent manner | unaffected | significantly inhibited | significant signal intensity decreased | significant signal intensity decreased |
